In patent publication US4479943A, “3-Demethoxyistamycin B, the 2"-N-formimidoyl derivative thereof and pharmaceutical composition containing same” (Zaidan Hojin Biseibutsu Kagaku Kenkyu Kai, priority 1982, dated 1984):
Values after ≈ are worked out from the molar mass of the structure shown.

What was measured:
[1] = system: Staphylococcus aureus FDA 209P; assay: Antibacterial MIC, standard serial dilution; format: cell-based; settings: nutrient agar, 37° C., 17 hours, as free base
[2] = system: Staphylococcus aureus Smith; assay: Antibacterial MIC, standard serial dilution; format: cell-based; settings: nutrient agar, 37° C., 17 hours, as free base
[3] = system: Staphylococcus aureus Ap01; assay: Antibacterial MIC, standard serial dilution; format: cell-based; settings: nutrient agar, 37° C., 17 hours, as free base
[4] = system: Staphylococcus epidermidis 109; assay: Antibacterial MIC, standard serial dilution; format: cell-based; settings: nutrient agar, 37° C., 17 hours, as free base
[5] = system: Micrococcus flavus FDA 16; assay: Antibacterial MIC, standard serial dilution; format: cell-based; settings: nutrient agar, 37° C., 17 hours, as free base
Sarcina lutea PCI 1001 = assay: Antibacterial MIC, standard serial dilution; format: cell-based; settings: nutrient agar, 37° C., 17 hours, as free base
Bacillus anthracis = format: cell-based; settings: nutrient agar, 37° C., 17 hours, as free base
[6] = system: Bacillus subtilis PCI 219; assay: Antibacterial MIC, standard serial dilution; format: cell-based; settings: nutrient agar, 37° C., 17 hours, as free base
[7] = system: Bacillus subtilis NRRL B-558; assay: Antibacterial MIC, standard serial dilution; format: cell-based; settings: nutrient agar, 37° C., 17 hours, as free base
[8] = system: Bacillus cereus ATCC 10702; assay: Antibacterial MIC, standard serial dilution; format: cell-based; settings: nutrient agar, 37° C., 17 hours, as free base
[9] = system: Corynebacterium bovis 1810; assay: Antibacterial MIC, standard serial dilution; format: cell-based; settings: nutrient agar, 37° C., 17 hours, as free base
[10] = system: Mycobacterium smegmatis ATCC 607; assay: Antibacterial MIC, standard serial dilution; format: cell-based; settings: nutrient agar, 37° C., 17 hours, as free base
Escherichia coli NIHJ = assay: Antibacterial MIC, standard serial dilution; format: cell-based; settings: nutrient agar, 37° C., 17 hours, as free base
Escherichia coli K-12 = assay: Antibacterial MIC, standard serial dilution; format: cell-based; settings: nutrient agar, 37° C., 17 hours, as free base
Escherichia coli K-12 R5 = assay: Antibacterial MIC, standard serial dilution; format: cell-based; settings: nutrient agar, 37° C., 17 hours, as free base
[11] = system: Escherichia coli K-12 R388; assay: Antibacterial MIC, standard serial dilution; format: cell-based; settings: nutrient agar, 37° C., 17 hours, as free base
[12] = system: Escherichia coli K-12 J5R11-2; assay: Antibacterial MIC, standard serial dilution; format: cell-based; settings: nutrient agar, 37° C., 17 hours, as free base
[13] = system: Escherichia coli K-12 ML1629; assay: Antibacterial MIC, standard serial dilution; format: cell-based; settings: nutrient agar, 37° C., 17 hours, as free base
[14] = system: Escherichia coli K-12 ML1630; assay: Antibacterial MIC, standard serial dilution; format: cell-based; settings: nutrient agar, 37° C., 17 hours, as free base
[15] = system: Escherichia coli K-12 ML1410; assay: Antibacterial MIC, standard serial dilution; format: cell-based; settings: nutrient agar, 37° C., 17 hours, as free base
[16] = system: Escherichia coli K-12 LA290 R55; assay: Antibacterial MIC, standard serial dilution; format: cell-based; settings: nutrient agar, 37° C., 17 hours, as free base
[17] = system: Escherichia coli K-12 LA290 R56; assay: Antibacterial MIC, standard serial dilution; format: cell-based; settings: nutrient agar, 37° C., 17 hours, as free base
Escherichia coli W677 = assay: Antibacterial MIC, standard serial dilution; format: cell-based; settings: nutrient agar, 37° C., 17 hours, as free base
[18] = system: Escherichia coli JR66/W677; assay: Antibacterial MIC, standard serial dilution; format: cell-based; settings: nutrient agar, 37° C., 17 hours, as free base
Escherichia coli JR225 = assay: Antibacterial MIC, standard serial dilution; format: cell-based; settings: nutrient agar, 37° C., 17 hours, as free base
[19] = system: Klebsiella pneumoniae PCI602; assay: Antibacterial MIC, standard serial dilution; format: cell-based; settings: nutrient agar, 37° C., 17 hours, as free base
[20] = system: Klebsiella pneumoniae 22#3038; assay: Antibacterial MIC, standard serial dilution; format: cell-based; settings: nutrient agar, 37° C., 17 hours, as free base
[21] = system: Shigella dysenteriae JS11910; assay: Antibacterial MIC, standard serial dilution; format: cell-based; settings: nutrient agar, 37° C., 17 hours, as free base
Salmonella typhi T-63 = assay: Antibacterial MIC, standard serial dilution; format: cell-based; settings: nutrient agar, 37° C., 17 hours, as free base
[22] = system: Salmonella enteritidis 1891; assay: Antibacterial MIC, standard serial dilution; format: cell-based; settings: nutrient agar, 37° C., 17 hours, as free base
Proteus vulgaris 0X19 = assay: Antibacterial MIC, standard serial dilution; format: cell-based; settings: nutrient agar, 37° C., 17 hours, as free base
Proteus rettgeri GN311 = assay: Antibacterial MIC, standard serial dilution; format: cell-based; settings: nutrient agar, 37° C., 17 hours, as free base
Proteus rettgeri GN466 = assay: Antibacterial MIC, standard serial dilution; format: cell-based; settings: nutrient agar, 37° C., 17 hours, as free base
Serratia marcescens = assay: Antibacterial MIC, standard serial dilution; format: cell-based; settings: nutrient agar, 37° C., 17 hours, as free base
Serratia sp. SOU = assay: Antibacterial MIC, standard serial dilution; format: cell-based; settings: nutrient agar, 37° C., 17 hours, as free base
Serratia sp. 4 = assay: Antibacterial MIC, standard serial dilution; format: cell-based; settings: nutrient agar, 37° C., 17 hours, as free base
Providencia sp. Pv16 = assay: Antibacterial MIC, standard serial dilution; format: cell-based; settings: nutrient agar, 37° C., 17 hours, as free base
Providencia sp. 2991 = assay: Antibacterial MIC, standard serial dilution; format: cell-based; settings: nutrient agar, 37° C., 17 hours, as free base
[23] = system: Pseudomonas aeruginosa A3; assay: Antibacterial MIC, standard serial dilution; format: cell-based; settings: nutrient agar, 37° C., 17 hours, as free base
[24] = system: Pseudomonas aeruginosa No. 12; assay: Antibacterial MIC, standard serial dilution; format: cell-based; settings: nutrient agar, 37° C., 17 hours, as free base
[25] = system: Pseudomonas aeruginosa H9; assay: Antibacterial MIC, standard serial dilution; format: cell-based; settings: nutrient agar, 37° C., 17 hours, as free base
[26] = system: Pseudomonas aeruginosa H11; assay: Antibacterial MIC, standard serial dilution; format: cell-based; settings: nutrient agar, 37° C., 17 hours, as free base
[27] = system: Pseudomonas aeruginosa TI-13; assay: Antibacterial MIC, standard serial dilution; format: cell-based; settings: nutrient agar, 37° C., 17 hours, as free base
[28] = system: Pseudomonas aeruginosa GN315; assay: Antibacterial MIC, standard serial dilution; format: cell-based; settings: nutrient agar, 37° C., 17 hours, as free base
[29] = system: Pseudomonas aeruginosa 99; assay: Antibacterial MIC, standard serial dilution; format: cell-based; settings: nutrient agar, 37° C., 17 hours, as free base
[30] = system: Pseudomonas aeruginosa B-13; assay: Antibacterial MIC, standard serial dilution; format: cell-based; settings: nutrient agar, 37° C., 17 hours, as free base
[31] = system: Pseudomonas aeruginosa 21-75; assay: Antibacterial MIC, standard serial dilution; format: cell-based; settings: nutrient agar, 37° C., 17 hours, as free base
[32] = system: Pseudomonas aeruginosa PST1; assay: Antibacterial MIC, standard serial dilution; format: cell-based; settings: nutrient agar, 37° C., 17 hours, as free base
[33] = system: Pseudomonas aeruginosa ROS 134/PU21; assay: Antibacterial MIC, standard serial dilution; format: cell-based; settings: nutrient agar, 37° C., 17 hours, as free base
[34] = system: Pseudomonas aeruginosa K-Ps 102; assay: Antibacterial MIC, standard serial dilution; format: cell-based; settings: nutrient agar, 37° C., 17 hours, as free base
[35] = system: Pseudomonas maltophilia GN 907; assay: Antibacterial MIC, standard serial dilution; format: cell-based; settings: nutrient agar, 37° C., 17 hours, as free base
bacteria = settings: in words; earlier work; cited from earlier work

Q: Which MIC [1] does the source give for `CNCC1CCC(N)C(OC2C(N)CC(O)C(N(C)C(=O)CNC=N)C2O)O1` (stereo not shown) [Demethyl formimidoyl ista B, 3-O-demethyl-2"-N-formimidoylistamycin B] here?
A: 0.39 µg/mL (≈ 0.969 µM)

Q: And the MIC [2]?
A: < 0.20 µg/mL

Q: And the MIC [3]?
A: 0.39 µg/mL (≈ 0.969 µM)

Q: And the MIC [4]?
A: 0.20 µg/mL (≈ 0.497 µM)

Q: And the MIC [5]?
A: 0.39 µg/mL (≈ 0.969 µM)

Q: And the MIC (Sarcina lutea PCI 1001)?
A: 0.39 µg/mL (≈ 0.969 µM)

Q: And the MIC (Bacillus anthracis)?
A: 0.39 µg/mL (≈ 0.969 µM)

Q: And the MIC [6]?
A: 0.20 µg/mL (≈ 0.497 µM)

Q: What about the MIC [7] of the same compound?
A: < 0.20 µg/mL

Q: What about the MIC [8] of the same compound?
A: 0.78 µg/mL (≈ 1.94 µM)

Q: And the MIC [9]?
A: < 0.20 µg/mL

Q: What about the MIC [10] of the same compound?
A: 0.39 µg/mL (≈ 0.969 µM)

Q: And the MIC (Escherichia coli NIHJ)?
A: 0.39 µg/mL (≈ 0.969 µM)

Q: And the MIC (Escherichia coli K-12)?
A: 0.78 µg/mL (≈ 1.94 µM)

Q: And the MIC (Escherichia coli K-12 R5)?
A: 0.78 µg/mL (≈ 1.94 µM)

Q: And the MIC [11]?
A: 0.78 µg/mL (≈ 1.94 µM)

Q: And the MIC [12]?
A: 1.56 µg/mL (≈ 3.88 µM)

Q: What about the MIC [13] of the same compound?
A: 0.78 µg/mL (≈ 1.94 µM)

Q: What about the MIC [14] of the same compound?
A: 1.56 µg/mL (≈ 3.88 µM)

Q: What about the MIC [15] of the same compound?
A: 1.56 µg/mL (≈ 3.88 µM)

Q: And the MIC [16]?
A: 0.78 µg/mL (≈ 1.94 µM)

Q: And the MIC [17]?
A: 0.78 µg/mL (≈ 1.94 µM)

Q: What about the MIC (Escherichia coli W677) of the same compound?
A: 0.39 µg/mL (≈ 0.969 µM)

Q: And the MIC [18]?
A: 1.56 µg/mL (≈ 3.88 µM)

Q: What about the MIC (Escherichia coli JR225) of the same compound?
A: 0.39 µg/mL (≈ 0.969 µM)

Q: And the MIC [19]?
A: 0.78 µg/mL (≈ 1.94 µM)

Q: And the MIC [20]?
A: 1.56 µg/mL (≈ 3.88 µM)

Q: And the MIC [21]?
A: 1.56 µg/mL (≈ 3.88 µM)

Q: What about the MIC (Salmonella typhi T-63) of the same compound?
A: < 0.20 µg/mL

Q: And the MIC [22]?
A: 1.56 µg/mL (≈ 3.88 µM)

Q: And the MIC (Proteus vulgaris 0X19)?
A: 0.39 µg/mL (≈ 0.969 µM)

Q: And the MIC (Proteus rettgeri GN311)?
A: 0.39 µg/mL (≈ 0.969 µM)

Q: And the MIC (Proteus rettgeri GN466)?
A: 0.39 µg/mL (≈ 0.969 µM)

Q: What about the MIC (Serratia marcescens) of the same compound?
A: 1.56 µg/mL (≈ 3.88 µM)

Q: And the MIC (Serratia sp. SOU)?
A: 12.5 µg/mL (≈ 31.1 µM)

Q: And the MIC (Serratia sp. 4)?
A: 12.5 µg/mL (≈ 31.1 µM)

Q: What about the MIC (Providencia sp. Pv16) of the same compound?
A: 0.78 µg/mL (≈ 1.94 µM)

Q: What about the MIC (Providencia sp. 2991) of the same compound?
A: 0.78 µg/mL (≈ 1.94 µM)

Q: And the MIC [23]?
A: 0.20 µg/mL (≈ 0.497 µM)

Q: What about the MIC [24] of the same compound?
A: 12.5 µg/mL (≈ 31.1 µM)

Q: And the MIC [25]?
A: 12.5 µg/mL (≈ 31.1 µM)

Q: What about the MIC [26] of the same compound?
A: 25 µg/mL (≈ 62.1 µM)

Q: What about the MIC [27] of the same compound?
A: 12.5 µg/mL (≈ 31.1 µM)

Q: What about the MIC [28] of the same compound?
A: 6.25 µg/mL (≈ 15.5 µM)

Q: And the MIC [29]?
A: 100 µg/mL (≈ 248 µM)

Q: And the MIC [30]?
A: 100 µg/mL (≈ 248 µM)

Q: What about the MIC [31] of the same compound?
A: 25 µg/mL (≈ 62.1 µM)

Q: And the MIC [32]?
A: 25 µg/mL (≈ 62.1 µM)

Q: And the MIC [33]?
A: 100 µg/mL (≈ 248 µM)

Q: And the MIC [34]?
A: 12.5 µg/mL (≈ 31.1 µM)

Q: What about the MIC [35] of the same compound?
A: > 100 µg/mL

Q: What about the antibacterial activity (bacteria) of the same compound?
A: active not only against Pseudomonas aeruginosa but also against a variety of resistant bacteria
